Data from patent publication US5677350A, “Inhibition of cancer cell growth, proliferation, and metastasis using N,N'-dα,ω-diaminoalkanes” (priority 1995, dated 1997).

Assays:
[1] = test system: active putrescine transport; experiment: Uptake of (1,4-14C)-putrescine by H-4-II-E hepatoma cells; assay type: cell-based, rat
Experimental: (1,4-^14 C)-putrescine (10 μM) was added to the culture medium, and radioactivity measured in the cells (dpm/10 μg of protein). Uptake by control cells was considered to be 100%.
Because putrescine uptake by cells is regulated by an active transport system, its Km was determined for the H-4-II-E hepatoma cell line. The uptake of (1,4-^14 C)-putrescine was determined at two different putrescine concentrations as a function of time.
Each value of the plot was corrected by subtracting the amount of label due to non-specific binding to the cell membranae.

[2] = target: T1, ODC (Rattus norvegicus, UniProt P09057); settings: for inhibition at 15000 µM: read-out: ODC activity decreased
T1 sequence (P09057 1-461): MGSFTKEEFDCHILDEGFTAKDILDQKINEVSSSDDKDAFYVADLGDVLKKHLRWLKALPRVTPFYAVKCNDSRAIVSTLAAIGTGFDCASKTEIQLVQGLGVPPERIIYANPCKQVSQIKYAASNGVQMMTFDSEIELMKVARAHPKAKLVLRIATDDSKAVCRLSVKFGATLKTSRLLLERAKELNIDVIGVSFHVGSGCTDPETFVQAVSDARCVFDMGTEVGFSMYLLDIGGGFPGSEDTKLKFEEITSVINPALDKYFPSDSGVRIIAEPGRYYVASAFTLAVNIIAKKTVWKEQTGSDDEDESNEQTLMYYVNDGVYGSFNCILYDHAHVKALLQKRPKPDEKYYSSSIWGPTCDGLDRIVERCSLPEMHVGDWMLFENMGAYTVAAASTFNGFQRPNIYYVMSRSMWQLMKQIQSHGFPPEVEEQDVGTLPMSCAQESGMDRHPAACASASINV

[3] = target: T1, ODC; experiment: ODC activity in insulin-induced H-35 hepatoma cells; assay type: cell-based; settings: 100 μM; for ODC activity (in words): added simultaneously with insulin
Experimental: It is known that in hepatoma H-35 cells, ODC activity is very low in quiescent cells, and is increased by the addition of 10^-6 M insulin, reaching a peak approximately 4 to 5 hours after the addition of the insulin.

[4] = test system: rat H-4-II-E hepatoma cells; experiment: Proliferation of rat H-4-II-E hepatoma cells in culture; assay type: cell-based
Experimental: (§1) Incubation of the cultures was carried out in standard fashion in the presence of 1 mM aminoguandine, an inhibitor of polyamine oxidases (PAO).
Cell proliferation studies were also conducted to analyze the effect of the terminal groups on cell inhibition. […] The results are depicted graphically in FIG. 5.
Comparative proliferation studies were also carried out to study the effect of chain length on the inhibitory effect of N,N'-dibenzylaminoalkanes. (See FIG. 6.) The in vitro inhibitory effects of DMP, DMC, and DBPr, were studied in the same rat H-4-II-E hepatoma cells as the above experiments.
Results are shown graphically in FIG. 10.

[5] = test system: rat H-4-II-E hepatoma cells; experiment: Cell morphology of rat H-4-II-E hepatoma cells (photomicrographs); assay type: cell-based
Experimental: as §1
FIG. 7 is a series of photomicrographs (×160) of the above homologous cultures. The photomicrographs were taken 24 hours after introduction of the dibenzyldiaminoalkanes. […] Photo 7A is the control culture.

[6] = test system: H-35 cells; experiment: DBP uptake and intracellular distribution in H-35 hepatoma cells; assay type: in vitro ADME, rat
[7] = test system: insulin-induced H-35 hepatoma cells; experiment: Intracellular polyamine levels in insulin-induced H-35 hepatoma cells; assay type: cell-based, rat; settings: 100 μM, hour 4
[8] = test system: cell-derived rat and human xenografts; settings: compared with 0.15% DBP; cited from earlier work
[9] = added 3 hours after insulin (time 4 hours)
[10] = H-35 cells not treated with insulin

SMILES: c1ccc(CNCCCCCNCc2ccccc2)cc1 [DBC, N,N'-dibenzylcadaverine]
- inhibition of uptake of exogenous putrescine ([1]; (1,4-14C)-putrescine 10 μM): produced an inhibition of the uptake of exogenous putrescine
- in vitro ODC inhibition (in words) ([2]; isolated ODC): weaker inhibitors than putrescine itself
- inhibition at 15000 µM [2]: < 10%
- ODC inhibition (in words) [3, 9]: ODC inhibition values were very similar
- ODC activity (in words) [3]: no significant ODC activity was detected
- effect on cell proliferation ([4]; 100 μM, time not stated): showed inhibition of cell proliferation
- effect on cell morphology ([5]; 100 μM, 24 hours): affect cell morphology similarly

SMILES: c1ccc(CNCCCCNCc2ccccc2)cc1 [DBP, N,N'-dibenzylputrescine]
- inhibition at 15000 µM [2]: < 10%
- intracellular distribution of DBP, cytosol [6, 10]: 97%
- intracellular distribution of DBP, nuclear fraction [6, 10]: 2%
- DBP uptake, of the amount added ([6]; H-35 cells not treated with insulin, 100 μM, 24 hours): approximately 6±2%
- DBP uptake, of the amount of putrescine added to the medium ([6]; insulin-induced H-35 cells, 100 μM): approximately 13±4%
- ODC inhibition (in words) [3, 9]: ODC inhibition values were very similar
- ODC activity (in words) [3]: no significant ODC activity was detected
- ODC inhibition (in words) ([3]; time 1 hour): required longer time periods to reach similar ODC inhibition levels

SMILES: c1ccc(CNCCCNCc2ccccc2)cc1 [DBPr, dibenzylpropanediamine]
- inhibition at 15000 µM [2]: < 10%

SMILES: CCNCCCCNCC [DEP, diethyl putrescine]
- inhibition at 15000 µM [2]: 13%

SMILES: NCCCC(N)(C(=O)O)C(F)F (stereo not drawn) [DFMO, difluoromethylornithine]
- intracellular putrescine level [7]: decreased the endogenous levels of putrescine
- intracellular spermidine level [7]: lowered the levels of spermidine
- intracellular spermine level [7]: Neither reagent had an effect on the intracellular concentration of spermine
- ODC inhibited from the control group ([3]; added 1 hour before harvesting (6 hours after insulin)): 79%
- ODC inhibition (in words) [3, 9]: ODC inhibition values were very similar
- ODC activity (in words) [3]: no significant ODC activity was detected
- effect on cell proliferation ([4]; 100 μM, time not stated): ineffective in inhibiting cell proliferation
- effect on cell proliferation ([4]; 1 mM, after 48 hours): inhibit cell proliferation
- minimal effective concentration ([4]; H4IIE, rat hepatoma cell line, read-out: concentration required for similar cytostatic effect): 1000 µM
- concentration required to produce the same effect on xenografts [8]: 2%
- effect on cell morphology ([5]; 100 μM, 24 hours): no morphological changes
- effect on cell morphology ([5]; 1 mM): no morphological changes

SMILES: CNCCCCNC [DMP, dimethyl putrescine]
- inhibition at 15000 µM [2]: 33%

SMILES: NCCCCN [putrescine, 1,4-diaminobutane]
- intracellular putrescine level [7]: greatly increased the putrescine cell contents
- intracellular spermidine level [7]: very little effect on intracellular spermidine and spermine levels
- intracellular spermine level [7]: very little effect on intracellular spermidine and spermine levels
- Km ([1]; 2 mM and 20 mM (1,4-14C)-putrescine): 5.2 ± 0.6 µM
- inhibition at 15000 µM [2]: 57%
- ODC inhibition (in words) ([3]; time 1 hour): required longer time periods to reach similar ODC inhibition levels
